Laboratory results published in patent publication US4168379A, “Pyridin-3-ols” (BASF Aktiengesellschaft, priority 1977, dated 1979).

What was measured:
in vivo = format: in vivo, rats (Sprague Dawley strain); conditions: rat, in vivo; oral, rats; dose at which Δ% was determined; read-out: Maximum action: Dose (highest non-toxic dose)
Procedure: (§1) To determine the anti-arrhythmic activity, the drugs were administered orally to rats (Sprague Dawley strain, weight […]) 45 minutes before the start of the narcosis.
(§2) The animals were narcotized with thiobutabartital (100 mg/kg administered intraperitoneally). The arrhythmogenic substance used was aconitine, which was administered by intravenous infusion (at a rate of 0.005 mg/kg. min) 60 minutes after administration of the test substance. In the case of untreated animals (N=30), arrhythmias occurred after an average of 3.7±0.9 minutes, the commencement of which can be delayed by anti-arrhythmic agents, the delay depending on the dosage.
(§3) For a quantitative evaluation of the linear relation between log dose (mg/kg) of the test substances and the relative prolongation of the duration of aconitine infusion (Δ%), the dose which extended the duration of infusion by 50% (ED 50) was determined. The prior art anti-arrhythmic agent quinidine served as a comparative substance.

[1] = tested on: Aconitine-induced arrhythmia; assay: animal or person; format: in vivo, rats (Sprague Dawley strain); conditions: for ED50: Rattus norvegicus, po, 1 h, read-out: ED 50: dose, administered orally, which prolongs the duration of aconitine infusion by 50%; for antiarrhythmic action (in words): as such and/or as acid addition salts
Procedure: as §1, §2, §3

[2] = acute toxicity (LD 50, Probit analysis, death within 24 hours); conditions: mouse, in vivo; for LD50 at 24 h: ip, intraperitoneal, female Swiss mice; for selectivity ratio: footnote 7 formula given as drawing 13, values correspond to LD 50 (mice, i.p.) / ED 50 (rats, oral), read-out: Therapeutic range
Procedure: The acute toxicity was determined on groups of 10 or 20 female Swiss mice, weighing 20-26 g, the compounds being administered intraperitoneally.

Row | SMILES | MTD (in vivo) | ED50 [1] | antiarrhythmic action (in words) [1] | LD50 at 24 h [2] | selectivity ratio [2]
1 | Cc1nc(Cc2ccccc2)c2c(c1OCCCNC(C)C)COC2 [Example IV, 4-benzyl-6-methyl-1,3-dihydro-furo[3,4-c]pyridin-7-yl 3-isopropylamino-propyl ether] | 215 mg/kg | 28.9 mg/kg | have an antiarrhythmic action | 139 mg/kg | 4.81
2 | CN(C)CCCOc1c(Cc2ccccc2)nc(Cc2ccccc2)c2c1COC2 [III, 4,6-dibenzyl-1,3-dihydrofuro[3,4-c]pyridin-7-yl 3-dimethylaminopropyl ether] | 215 mg/kg | 14.9 mg/kg | have an antiarrhythmic action | 98.3 mg/kg | 6.6
3 | C=C[C@H]1C[N@@]2CC[C@H]1C[C@@H]2[C@@H](O)c1ccnc2ccc(OC)cc12 [Quinidine, quinidine, reference compound] | – | 42.3 mg/kg | – | 180 mg/kg | –
4 | Cc1nc(Cc2ccccc2)c2c(c1OCCCCNC(C)C)COC2 [V, 4-benzyl-6-methyl-1,3-dihydro-furo[3,4-c]pyridin-7-yl 4-isopropylaminobutyl ether] | 100 mg/kg | 5.66 mg/kg | have an antiarrhythmic action | 99.3 mg/kg | 17.5
5 | Cc1nc(Cc2ccccc2)c2c(c1OCCC(C)CCNC(C)C)COC2 (centres unmarked) [VI, 4-benzyl-6-methyl-1,3-dihydrofuro[3,4-c]pyridin-7-yl 5-isopropylamino-(3-methylpentyl) ether] | 100 mg/kg | 12.2 mg/kg | have an antiarrhythmic action | 82.2 mg/kg | 6.74
6 | CCN(CC)CCC(C)CCOc1c(C)nc(Cc2ccccc2)c2c1COC2 (centres unmarked) [VII, 4-benzyl-6-methyl-1,3-dihydro-furo[3,4-c]pyridin-7-yl 5-diethylamino-(3-methylpentyl) ether] | 100 mg/kg | 11.3 mg/kg | have an antiarrhythmic action | 88.9 mg/kg | 7.86
7 | Cc1nc(Cc2ccccc2)c2c(c1OCCCCNC(C)(C)C)COC2 [VIII, 4-benzyl-6-methyl-1,3-dihydrofuro[3,4-c]pyridin-7-yl 4-tert.-butylamino-butyl ether] | 46.4 mg/kg | 9.29 mg/kg | have an antiarrhythmic action | 73.9 mg/kg | 7.95
